Drawing on PMC12040169 (PLOS Biology, 2025), this text covers viability for 56 compounds.

A word on the viability: it is a read-out of living cells in per cent, often relative to untreated cells.

The nature of the data set: in vitro. The note with it: human, hela cells, % viability.
For the compound `C[C@H](Nc1nc(-c2cccc(/C=C/C(=O)O)c2)cnc1N)c1ccccc1` [CBK063754], the viability at 28.5 h, 10 µM turned out to be 85.2%.

For `COc1ccc(Cl)cc1N(CC(=O)Nc1ccccc1C(=O)O)S(C)(=O)=O` [CBK264137], the viability at 28.5 h, 10 µM is 96.9%.

As to `C=CCN1C(=O)C2(CC(=O)N(CCCN(C)S(C)(=O)=O)C2=O)c2cc(F)ccc21` (centres unmarked) [CBK075319], the viability at 28.5 h, 10 µM was found to be 100%.

In the case of `CCOC(=O)Cc1csc(NS(=O)(=O)/C=C/c2ccccc2)n1` [CBK000072], the viability at 28.5 h, 10 µM is 101%.

As for `COc1ccc(C2(CNC(=O)c3ccc(C)cc3)CCOCC2)cc1` [CBK067060], the viability at 28.5 h, 10 µM was 108%.

Turning to `O=C1Nc2ccc(-c3ccc(Cl)cc3)cc2C(=O)N2CCN(C(=O)CO)C[C@H]12` [CBK289594], the viability at 28.5 h, 10 µM was 96.1%.

In the case of `CC(=O)Cc1c(C(=O)O)c(C)nn1-c1ccccc1` [CBK286779], the viability at 28.5 h, 10 µM worked out at 104%.

For `N#CCCCN1CCC(Oc2nccnc2OCc2ccc(Cl)cc2Cl)CC1` [CBK161568], the viability at 28.5 h, 10 µM is 94.4%.

Consider `CC(C)N(C(=O)Cn1nc(-c2cccs2)ccc1=O)C(C)C` [CBK282638], for which the viability at 28.5 h, 10 µM was determined as 90%.

As for `CCOC(=O)CSC/C(=N/Nc1ccccc1)c1cccs1` [CBK006956], the viability at 28.5 h, 10 µM turned out to be 102%.

`Cc1cc(Cl)ccc1OCC(=O)NC(=S)Nc1cccc(-c2nc3ccccc3s2)c1` [CBK264802]: the viability at 28.5 h, 10 µM worked out at 105%.

For `Cc1c(C)n(Cc2ccco2)c2ncnc(NCC(=O)O)c12` [CBK307563], the viability at 28.5 h, 10 µM worked out at 101%.

Turning to `COc1cc(NS(=O)(=O)c2ccc(NC(=O)c3cccc4ccccc34)cc2)nc(OC)n1` [CBK262465], the viability at 28.5 h, 10 µM was 96.6%.

For `CC(=O)Nc1cccc(C(=O)N2CCN(CC3CCCO3)CC2)c1` (centres unmarked) [CBK305158], the viability at 28.5 h, 10 µM was 96%.

Take `CN1CCN(C(C(=O)O)c2c[nH]c3cc(OCc4ccccc4)ccc23)CC1` (centres unmarked) [CBK286654]: the viability at 28.5 h, 10 µM came out at 84.6%.

On to `NC(=O)c1nc(-c2ccccc2)nc2c1[nH]c(=O)n2-c1cccc(Cl)c1` [CBK287544], for which the viability at 28.5 h, 10 µM was found to be 104%.

With `CC(C)(C)C(=O)N1CCCC(c2cc3cccnc3[nH]2)C1` (centres unmarked) [CBK284945], the viability at 28.5 h, 10 µM is 102%.

`O=C(Nc1nnc(C(F)(F)F)s1)c1cc(Cl)ccc1Cl` [CBK095734]: the viability at 28.5 h, 10 µM turned out to be 86.3%.

As for `CC(=O)N1CC2(CCCC2)c2c(F)cccc21` [CBK306339], the viability at 28.5 h, 10 µM was determined as 78.2%.

For the compound `COc1ccc(C(=O)NCCCSc2nc(C(C)(C)C)cc(C(F)(F)F)n2)cc1` [CBK268690], the viability at 28.5 h, 10 µM turned out to be 99.7%.

For `CCC1CCc2c(sc(NC(=O)c3cc(-c4ccc(C)cc4C)nc4ccccc34)c2C(=O)OC)C1` (centres unmarked) [CBK262629], the viability at 28.5 h, 10 µM turned out to be 89.2%.

Take `CCc1cc(C(=O)N2CCC(Oc3ccccc3F)CC2)n(C)n1` [CBK282172]: the viability at 28.5 h, 10 µM worked out at 109%.

Consider `COc1ccccc1-c1nccnc1OCCc1ccc(NC(C)=O)cc1` [CBK106815], for which the viability at 28.5 h, 10 µM came to 115%.

With `CC1(C(=O)NC(c2ccncc2)c2ccc(Cl)cc2)CCCO1` (centres unmarked) [CBK282710], the viability at 28.5 h, 10 µM worked out at 89.5%.

Regarding `Cc1cc(OCC(O)CN2CCN(Cc3ccc4c(c3)OCO4)CC2)cc(C)c1Cl` (centres unmarked) [CBK074374], the viability at 28.5 h, 10 µM came to 93.4%.

Take `O=C(NCc1ccccc1)[C@@H]1Cc2[nH]cnc2CN1C(=O)C1CCCCC1` [CBK288972]: the viability at 28.5 h, 10 µM was found to be 113%.

In the case of `Cc1ccc(-c2nnc(COC(=O)c3cc(O)nc4ccccc34)o2)cc1` [CBK269741], the viability at 28.5 h, 10 µM was found to be 88.9%.

As for `COc1ccc(C2(C(=O)NCc3ccc(Cl)c(Cl)c3)CC2)cc1` [CBK149827], the viability at 28.5 h, 10 µM came out at 98.7%.

On to `OCc1cccc(-c2cncc(NCCc3cccnc3)n2)c1` [CBK037946], for which the viability at 28.5 h, 10 µM was 98.8%.

Regarding `CCOc1cccc(NC(=O)/C(C#N)=C\c2cc(OC)c(O)cc2Br)c1` [CBK263189], the viability at 28.5 h, 10 µM amounted to 95.2%.

For `CN(C)C(=O)n1cc(Cl)c(-c2ccccc2)n1` [CBK004985], the viability at 28.5 h, 10 µM stood at 97%.

Turning to `Cc1cc2c(N3CCN(Cc4nc5ccccc5[nH]4)CC3)ncnc2s1` [CBK268213C], the viability at 28.5 h, 10 µM came to 101%.

On to `CN(C)CCN(C)C(=O)c1ccc(-c2ccccc2)nc1N(C)C` [CBK106070], for which the viability at 28.5 h, 10 µM was 88.1%.

As for `CN(C)CC(=O)NCc1ccc(-c2nc(-c3ccc(C#N)cc3)cnc2N)cc1` [CBK116506], the viability at 28.5 h, 10 µM was determined as 92%.

For the compound `c1ccc2c(c1)OCC(COc1cncc(N3CCNCC3)n1)O2` (centres unmarked) [CBK172357G], the viability at 28.5 h, 10 µM amounted to 101%.

Take `COCCNc1nc(-c2ccc(F)cc2)cnc1N` [CBK063591]: the viability at 28.5 h, 10 µM is 116%.

As to `Cc1nnc(N2C(=O)c3oc4ccc(Cl)cc4c(=O)c3C2c2cccnc2)s1` (centres unmarked) [CBK267010], the viability at 28.5 h, 10 µM amounted to 105%.

On to `CN(C)CC(C)(C)CNC(=O)c1cc(C(=O)c2ccc(Cl)cc2Cl)c[nH]1` [CBK107416], for which the viability at 28.5 h, 10 µM amounted to 94.8%.

For `COc1ccccc1N1CCN(C(=O)NCCCN2CCCC2=O)CC1` [CBK155612], the viability at 28.5 h, 10 µM was found to be 99.5%.

With `CCn1cc(C(=O)N2CCCC2c2nccs2)c(=O)c2ccc(C)nc21` (centres unmarked) [CBK307171], the viability at 28.5 h, 10 µM worked out at 86.4%.

Regarding `COc1ccc2c(c1OC)C(=O)N1c3ccccc3COC21` (centres unmarked) [CBK109960], the viability at 28.5 h, 10 µM is 103%.

Regarding `COc1ccc(-c2ccc(OCCNC(=O)c3cccc(F)c3)nn2)cc1` [CBK294428], the viability at 28.5 h, 10 µM amounted to 87.1%.

For the compound `O=C(C[S+]([O-])c1ccc(C(F)(F)F)cc1[N+](=O)[O-])Oc1cccc2cccnc12` (centres unmarked) [CBK266716], the viability at 28.5 h, 10 µM is 91.6%.

Turning to `CC(=O)N1CCC(c2cc(-c3cccc(F)c3)n(C)n2)CC1` [CBK282097], the viability at 28.5 h, 10 µM came to 101%.

Turning to `Oc1n[nH]c(-c2ccccc2Cl)c1Cc1c(Cl)cccc1Cl` [CBK107935], the viability at 28.5 h, 10 µM worked out at 84.1%.

For `Cc1cc2ncn(CC(=O)NCc3ccccc3)c2cc1C` [CBK200213], the viability at 28.5 h, 10 µM is 104%.

Regarding `COc1ncccc1-c1csc(N2CCOC(C)C2)n1` (centres unmarked) [CBK304118], the viability at 28.5 h, 10 µM came out at 81.8%.

Consider `COc1ccc(C2=NN(CN3C(=O)C(=O)c4cc(Br)ccc43)C(c3cccc([N+](=O)[O-])c3)C2)cc1` (centres unmarked) [CBK263490], for which the viability at 28.5 h, 10 µM was determined as 119%.

As for `FC(F)(F)c1nnc(-c2cc3sccc3s2)o1` [CBK006303], the viability at 28.5 h, 10 µM came to 96.4%.

Turning to `C=CCN(C(=S)NCc1ccc2c(c1)OCO2)C1CCCCC1` [CBK200037], the viability at 28.5 h, 10 µM worked out at 97.9%.

Turning to `Nc1ccc(S(=O)(=O)Nc2nccc(/C=C/c3ccc(Cl)cc3)n2)cc1` [CBK263254], the viability at 28.5 h, 10 µM was 105%.

As for `CC(C)[C@@H](CO)Nc1nc(-c2cccnc2)cn2ccnc12` [CBK037539], the viability at 28.5 h, 10 µM was found to be 94%.

As to `Cn1c(-c2ccccc2)cnc1NC(=O)C1CCN(S(=O)(=O)c2ccc(F)cc2)C1` (centres unmarked) [CBK285709], the viability at 28.5 h, 10 µM amounted to 95.6%.

`O=C(CC1CS(=O)(=O)CC1CC(=O)Nc1cccc(Cl)c1Cl)Nc1cccc(Cl)c1Cl` (centres unmarked) [CBK262404]: the viability at 28.5 h, 10 µM worked out at 95.3%.

For the compound `COCOc1ccc(-c2nc(-c3cccc(NS(C)(=O)=O)c3)cnc2N)cc1` [CBK063985], the viability at 28.5 h, 10 µM stood at 105%.

Take `Cc1ccc2[nH]c(-c3cncn3C(C)CN3CCOCC3)c(C)c2c1` (centres unmarked) [CBK281794]: the viability at 28.5 h, 10 µM was determined as 103%.
